In patent US7531553B2, “Heterocyclic compounds and methods of use” (Amgen Inc., priority 2003, dated 2009):

System: Human Umbilical Vein Endothelial cells
Assay: HUVEC proliferation assay (VEGF-stimulated)
Type: cell-based
Conditions: VEGF 50 ng/mL final, 72 h incubation, CyQuant dye, read-out: inhibited VEGF-stimulated HUVEC proliferation at a level (IC50)
Experimental: Human Umbilical Vein Endothelial cells are purchased from Clonetics, Inc., as cryopreserved cells harvested from a pool of donors. These cells, at passage 1, are thawed and expanded in EBM-2 complete medium, until passage 2 or 3. The cells are trypsinized, washed in DMEM+10% FBS+antibiotics, and spun at 1000 rpm for 10 min. Prior to centrifugation of the cells, a small amount is collected for a cell count. After centrifugation, the medium is discarded, and the cells are resuspended in the appropriate volume of DMEM+10% FBS+antibiotics to achieve a concentration of 3×10^5 cells/mL. Another cell count is performed to confirm the cell concentration. The cells are diluted to 3×10^4 cells/mL in DMEM+10% FBS+antibiotics, and 100 μL of cells are added to a 96-well plate. The cells are incubated at 37° C. for 22 h.
Prior to the completion of the incubation period, compound dilutions are prepared. Five-point, five-fold serial dilutions are prepared in DMSO, at concentrations 400-fold greater than the final concentrations desired. 2.5 μL of each compound dilution are diluted further in a total of 1 mL DMEM+10% FBS+antibiotics (400× dilution). Medium containing 0.25% DMSO is also prepared for the 0 μM compound sample. After 22-h, the medium is removed from the cells, and 100 μL of each compound dilution is added. The cells are incubated at 37° C. for 2-3 h.
During the compound pre-incubation period, the growth factors are diluted to the appropriate concentrations. Solutions of DMEM+10% FBS+antibiotics, containing either VEGF or bFGF at the following concentrations: 50, 10, 2, 0.4, 0.08, and 0 ng/mL are prepared. For the compound-treated cells, solutions of VEGF at 550 ng/mL or bFGF at 220 ng/mL for 50 ng/mL or 20 ng/mL final concentrations, respectively, are prepared since 10 μL of each will be added to the cells (110 μL final volume). At the appropriate time after adding the compounds, the growth factors are added. VEGF is added to one set of plates, while bFGF is added to another set of plates. For the growth factor control curves, the media on wells B4-G6 of plates 1 and 2 are replaced with media containing VEGF or bFGF at the varying concentrations (50-0 ng/mL). The cells are incubated at 37° C. for an additional 72 h.
At the completion of the 72 h incubation period, the medium is removed, and the cells are washed twice with PBS. After the second wash with PBS, the plates are tapped gently to remove excess PBS, and the cells are placed at −70° C. for at least 30 min. […] Raw data are collected and analyzed using a 4-parameter fit equation in XLFit. IC50 values are then determined.

Row | SMILES | IC50 [nM]
1 | CNC(=O)c1cc(Oc2ccc3[nH]c(Nc4ccc(C(F)(F)C(F)(F)F)c(OC[C@H]5CCCN5C)c4)nc3c2)ccn1 [Example 6, R-4-{2-[3-(1-Methyl-pyrrolidin-2-ylmethoxy)-4-pentafluoroethyl-phenylamino]-1H-benzimidazol-5-yloxy}-pyridine-2-carboxylic acid methylamide] | < 100
2 | CNC(=O)c1cc(Oc2ccc3[nH]c(Nc4ccc(C(F)(F)F)c(OCCN(C)C)c4)nc3c2)ccn1 [Example 13a] | < 100
3 | CNC(=O)c1cc(Oc2ccc3[nH]c(Nc4ccc(C(F)(F)F)c(OCC5CCCN5C)c4)nc3c2)ccn1 (stereo not shown) [Example 13c] | < 100
4 | CNC(=O)c1cc(Oc2ccc3c(c2)nc(Nc2ccc(Cl)c(CN4CCN(C)CC4)c2)n3C)ccn1 [Example 17, 4-{2-[4-Chloro-3-(4-methyl-piperazin-1-ylmethyl)-phenylamino]-1-methyl-1H-benzimidazol-5-yloxy}-pyridine-2-carboxylic acid methylamide] | < 100
5 | CN1CCN(Cc2cc(Nc3nc4cc(Oc5ccnc6ccccc56)ccc4[nH]3)ccc2Cl)CC1 [Example 28, [4-Chloro-3-(4-methyl-piperazin-1-ylmethyl)-phenyl]-[5-(quinolin-4-yloxy)-1H-benzimidazol-2-yl]-amine] | < 100
6 | CN1CCC[C@@H]1COc1cc(Nc2nc3cc(Oc4ccnc5ccccc45)ccc3[nH]2)ccc1C(F)(F)F [Example 29, [3-(1-Methyl-pyrrolidin-2-ylmethoxy)-4-trifluoromethyl-phenyl]-[5-(quinolin-4-yloxy)-1H-benzimidazol-2-yl]-amine] | < 100
7 | CNC(=O)c1cc(Oc2ccc3oc(Nc4ccc(Cl)c(CN5CCN(C)CC5)c4)nc3c2)ccn1 [Example 32, 4-{2-[4-Chloro-3-(4-methyl-piperazin-1-ylmethyl)-phenylamino]-benzoxazol-5-yloxy}-pyridine-2-carboxylic acid methylamide] | < 100
8 | CNC(=O)c1cc(Oc2ccc3oc(Nc4ccc(Br)cc4)nc3c2)ccn1 [Example 38] | < 100
9 | CNC(=O)c1cc(Oc2ccc3oc(Nc4ccc(C(C)C)cc4)nc3c2)ccn1 [Example 39] | < 100
10 | COc1cc2nccc(Oc3ccc4oc(Nc5ccc(Cl)c(CN6CCN(C)CC6)c5)nc4c3)c2cc1OC [Example 45, 5-((6,7-bis(Methoxy)-4-quinolinyl)oxy)-N-(4-chloro-3-((4-methyl-1-piperazinyl)methyl)phenyl)-1,3-benzoxazol-2-amine] | < 100
11 | CN1CCN(Cc2cc(Nc3nc4cc(Oc5ccnc6[nH]ccc56)ccc4o3)ccc2Cl)CC1 [Example 46, N-(4-Chloro-3-((4-methyl-1-piperazinyl)methyl)phenyl)-5-(1H-pyrrolo[2,3-b]pyridin-4-yloxy)-1,3-benzoxazol-2-amine] | < 100
12 | CN1CCC[C@H]1COc1cc(Nc2nc3cc(Oc4ccnc5[nH]ccc45)ccc3o2)ccc1Cl [Example 47, N-(4-Chloro-3-(((2S)-1-methyl-2-pyrrolidinyl)methoxy)phenyl)-5-(1H-pyrrolo[2,3-b]pyridin-4-yloxy)-1,3-benzoxazol-2-amine] | < 100
13 | CNC(=O)c1cc(Oc2cc(F)c3oc(Nc4ccc(Cl)c(OC[C@@H]5CCCN5C)c4)nc3c2)ccn1 [Example 49, 4-((2-((4-Chloro-3-(((2S)-1-methyl-2-pyrrolidinyl)methoxy)phenyl)amino)-7-fluoro-1,3-benzoxazol-5-yl)oxy)-N-methyl-2-pyridinecarboxamide] | < 100
14 | COc1cc2nccc(Oc3ccc4[nH]c(Nc5ccc(Cl)c(CN6CCN(C)CC6)c5)nc4c3)c2cc1OC [Example 236, [4-Chloro-3-(4-methylpiperazin-1-ylmethyl)-phenyl]-[5-(6,7-dimethoxyquinolin-4-yloxy)-1H-benzimidazol-2-yl]-amine] | < 100
15 | COc1cc2ncnc(Oc3ccc4[nH]c(Nc5ccc(Cl)cc5)nc4c3)c2cc1OC [Example 237, (4-Chlorophenyl)-[5-(6,7-dimethoxyquinazolin-4-yloxy)-1H-benzimidazol-2-yl]-amine] | < 100
16 | COc1cc2ncnc(Oc3ccc4[nH]c(Nc5ccc(Cl)c(OCC6CCN(C)CC6)c5)nc4c3)c2cc1OC [Example 238, [4-Chloro-3-(1-methylpiperidin-4-ylmethoxy)-phenyl]-[5-(6,7-dimethoxyquinazolin-4-yloxy)-1H-benzimidazol-2-yl]-amine] | < 100
17 | CNc1cc(Oc2ccc3oc(Nc4ccc(Cl)c(OC[C@@H]5CCCN5C)c4)nc3c2)ccn1 [Example 239, [4-Chloro-3-((2S)-1-methylpyrrolidin-2-ylmethoxy)-phenyl]-[5-(2-methylamino-pyridin-4-yloxy)-benzoxazol-2-yl]-amine] | < 100
18 | CN1CCC[C@H]1COc1cc(Nc2nc3cc(Oc4ccnc(C(N)=O)c4)ccc3o2)ccc1Cl [Example 240, 4-{2-[4-Chloro-3-((2S)-1-methylpyrrolidin-2-ylmethoxy)-phenylamino]-benzoxazol-5-yloxy}-pyridine-2-carboxylic acid amide] | < 100
19 | CNC(=O)c1cc(Oc2ccc3oc(Nc4ccc(Cl)c(OCC5CCN(C)CC5)c4)nc3c2)ccn1 [Example 242, 4-{2-[4-Chloro-3-(1-methylpiperidin-4-ylmethoxy)-phenylamino]-benzoxazol-5-yloxy}-pyridine-2-carboxylic acid methylamide] | < 100
20 | CNC(=O)c1cc(Oc2ccc3oc(Nc4ccc(Cl)c(OCC5CCNCC5)c4)nc3c2)ccn1 [Example 243, 4-{2-[4-Chloro-3-(piperidin-4-ylmethoxy)-phenylamino]-benzoxazol-5-yloxy}-pyridine-2-carboxylic acid methylamide] | < 100
21 | CNC(=O)c1cc(Oc2ccc3oc(Nc4ccc(Cl)c(OCC5CCN(C(C)C)CC5)c4)nc3c2)ccn1 [Example 244, 4-{2-[4-Chloro-3-(1-isopropylpiperidin-4-ylmethoxy)-phenylamino]-benzoxazol-5-yloxy}-pyridine-2-carboxylic acid methyl amide] | < 100
22 | CNC(=O)c1cc(Oc2cc(Cl)c3oc(Nc4ccc(Cl)c(CN5CCN(C)CC5)c4)nc3c2)ccn1 [Example 245, 4-{7-Chloro-2-[4-chloro-3-(4-methyl-piperazin-1-ylmethyl)-phenylamino]-benzoxazol-5-yloxy}-pyridine-2-carboxylic acid methyl amide] | < 100
23 | CNC(=O)c1cc(Oc2ccc3oc(Nc4ccc(Cl)c(CN5CCN(CCN(C)C)CC5)c4)nc3c2)ccn1 [Example 246, 4-[2-{4-Chloro-3-[4-(2-dimethylamino-ethyl)-piperazin-1-ylmethyl]-phenylamino}-benzoxazol-5-yloxy)-pyridine-2-carboxylic acid methylamide] | < 100
24 | CC(C)N1CCC[C@H]1COc1cc(Nc2nc3cc(Oc4ccnc5[nH]ccc45)ccc3o2)ccc1Cl [Example 247, S-[4-Chloro-3-(1-isopropylpyrrolidin-2-ylmethoxy)-phenyl]-[5-(1H-pyrrolo[2,3-b]pyridin-4-yloxy)-benzoxazol-2-yl]-amine] | < 100
25 | CCN(CC)CCOc1cc(Nc2nc3cc(Oc4ccnc(C(=O)NC)c4)ccc3o2)ccc1Cl [Example 248, 4-{2-[4-Chloro-3-(2-diethylamino-ethoxy)-phenylamino]-benzoxazol-5-yloxy}-pyridine-2-carboxylic acid methylamine] | < 100
26 | CNC(=O)c1cc(Oc2ccc3oc(Nc4ccc(Cl)c(OCCN(C)C)c4)nc3c2)ccn1 [Example 249, 4-{2-[4-Chloro-3-(2-dimethylamino-ethoxy)-phenylamino]-benzoxazol-5-yloxy}-pyridine-2-carboxylic acid methylamide] | < 100
27 | CNC(=O)c1cc(Oc2ccc3oc(Nc4ccc(Cl)c(OC[C@@H]5CCCN5C(C)C)c4)nc3c2)ccn1 [Example 252, 4-{2-[4-Chloro-3-((2S)-1-isopropyl-pyrrolidin-2-ylmethoxy)-phenylamino]-benzooxazol-5-yloxy}-pyridine-2-carboxilic acid methylamide] | < 100
28 | CN1CCN(Cc2cc(Nc3nc4cc(Oc5ccnc6ccccc56)cc(Cl)c4o3)ccc2Cl)CC1 [Example 257, [4-Chloro-3-(4-methyl-piperazin-1-ylmethyl)-phenyl]-[7-chloro-5-(quinolin-4-yloxy)-benzoxazol-2-yl]-amine] | < 100
